Experimental data published in patent US7514254B2, “Plant-derived alkaline alpha-galactosidase” (The State of Israel, Ministry of Agriculture & Rural …, priority 1998, dated 2009).

What was measured:
[1] = test system: Pseudomonas fluorescens H-601 alpha-galactosidase; details: Hashimoto et al. 1991; relative Km values; cited from earlier work
[2] = target: T1, melon (Cucumis melo) fruit alkaline alpha-galactosidase Form II (Cucumis melo, UniProt Q84NI6); test: Inhibition of alkaline alpha-galactosidase Form II by alternative substrate (galactose release); assay type: biochemical, muskmelon (Cucumis melo L. cv C-8); details: read-out: inhibition by excess raffinose (galactose release)
T1 construct: native 102 kDa, denatured 92 kDa; assayed at pH 7.5
T1 sequence (Q84NI6 1-772): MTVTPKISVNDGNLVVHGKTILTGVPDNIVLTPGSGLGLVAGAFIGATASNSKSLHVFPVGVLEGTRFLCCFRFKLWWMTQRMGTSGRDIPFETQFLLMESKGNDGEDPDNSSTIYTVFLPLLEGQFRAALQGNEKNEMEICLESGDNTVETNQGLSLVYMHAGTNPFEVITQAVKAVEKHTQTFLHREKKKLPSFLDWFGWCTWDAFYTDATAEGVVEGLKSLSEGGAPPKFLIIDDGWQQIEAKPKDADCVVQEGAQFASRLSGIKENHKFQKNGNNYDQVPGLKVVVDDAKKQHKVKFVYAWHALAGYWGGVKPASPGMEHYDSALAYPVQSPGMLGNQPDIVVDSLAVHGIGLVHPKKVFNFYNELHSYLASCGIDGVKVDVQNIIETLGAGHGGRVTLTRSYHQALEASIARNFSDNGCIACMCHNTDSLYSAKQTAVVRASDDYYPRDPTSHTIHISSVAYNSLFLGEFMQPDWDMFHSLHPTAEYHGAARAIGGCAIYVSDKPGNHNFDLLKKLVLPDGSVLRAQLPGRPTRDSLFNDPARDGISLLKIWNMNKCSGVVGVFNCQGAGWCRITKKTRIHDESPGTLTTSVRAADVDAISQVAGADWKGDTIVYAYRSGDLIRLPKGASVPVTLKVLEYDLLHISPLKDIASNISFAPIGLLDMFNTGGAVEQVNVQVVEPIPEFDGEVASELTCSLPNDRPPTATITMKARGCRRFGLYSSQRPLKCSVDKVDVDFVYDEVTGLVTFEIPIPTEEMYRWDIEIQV
Protocol: (§1) For routine analysis and monitoring the activity in the purification steps, alpha-galactosidase was assayed as described by Smart and Pharr (“Characterization of alpha-galactosidase from cucumber leaves”, Plant Physiology, 66:731-734, 1980), using p-nitrophenyl alpha-galactoside (pNPG) as substrate. Reaction was initiated by adding 50 μl enzyme aliquot to either 200 μl 100 mM pH 5.5 McIlvaine buffer or 100 mM pH 7.5 HEPES buffer, containing 5 mM pNPG at 35 C. The reaction was terminated after 10 min by adding 1 ml of 5% (w/v) Na2CO3 and activity expressed as nmol nitrophenol per min as measured at 410 nm. […] The assay was started by adding 50 μl enzyme preparation at 35 C and terminated after 10 to 20 min by 2 min boiling.

[3] = target: T2, melon (Cucumis melo) fruit alkaline alpha-galactosidase Form I (Cucumis melo, UniProt Q84NI7); test: Substrate kinetics (Lineweaver-Burk) of alkaline alpha-galactosidase Form I
T2 sequence (Q84NI7 1-754): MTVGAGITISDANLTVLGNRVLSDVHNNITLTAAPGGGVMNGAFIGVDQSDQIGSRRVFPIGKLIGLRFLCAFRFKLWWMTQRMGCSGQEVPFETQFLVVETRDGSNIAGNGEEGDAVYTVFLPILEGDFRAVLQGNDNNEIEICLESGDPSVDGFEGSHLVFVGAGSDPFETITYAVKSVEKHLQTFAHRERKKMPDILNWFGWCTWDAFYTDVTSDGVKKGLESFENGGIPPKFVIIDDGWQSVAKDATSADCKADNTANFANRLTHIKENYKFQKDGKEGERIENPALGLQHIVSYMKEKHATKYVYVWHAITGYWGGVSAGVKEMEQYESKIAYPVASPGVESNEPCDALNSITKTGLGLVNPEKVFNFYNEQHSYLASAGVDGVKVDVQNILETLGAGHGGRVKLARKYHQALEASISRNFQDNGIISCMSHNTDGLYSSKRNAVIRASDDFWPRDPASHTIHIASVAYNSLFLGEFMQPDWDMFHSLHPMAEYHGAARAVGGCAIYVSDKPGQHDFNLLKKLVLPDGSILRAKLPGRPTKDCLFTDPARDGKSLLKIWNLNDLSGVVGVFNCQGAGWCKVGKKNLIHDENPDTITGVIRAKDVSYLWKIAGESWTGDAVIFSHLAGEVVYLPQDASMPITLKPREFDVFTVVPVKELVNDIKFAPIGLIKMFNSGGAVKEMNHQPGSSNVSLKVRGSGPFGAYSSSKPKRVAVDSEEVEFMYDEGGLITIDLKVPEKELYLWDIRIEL
Protocol: as §1
(§2) The fractions from the DEAE-Sepharose chromatography which were active at pH 7.5 were pooled and dialyzed against buffer A for 12 h prior to loading onto an HPLC ion exchange chromatography column (Mono-Q HR 5/5, Pharmacia, Uppsala, Sweden), previously equilibrated with buffer A. Bound proteins were eluted with a linear gradient of 0.1 to 0.45 M NaCl and the active fractions were detected using pNPG as substrate at pH 7.5 as described above. […] For the further purification of Form II the active fractions of the peak II were chromatographed on hydrophobic interaction chromatography. The fractions were pooled, brought to 1 M (NH4)2SO4 and loaded on to a hydrophobic interaction column (phenyl-Sepharose CL-4B, 0.5×12 cm, Pharmacia, Uppsala, Sweden) previously equilibrated with buffer A containing 1 M (NH4)2SO4. The protein was eluted with a reverse stepwise gradient from 1 to 0 M (NH4)2SO4 with 50 mM intervals in buffer A. Fractions containing the activity peak were collected and dialyzed for 12 h against buffer A and the dialysate was concentrated by reverse dialysis against solid sucrose. The enzyme, partially purified by hydrophobic interaction chromatography, was used for the characterization of Form II. The active fractions from the hydrophobic interaction column were further purified. Active fractions were separated electrophoretically using a Mini Prep Cell (Bio-Rad Laboratories, Hercules, Calif.) for discontinuous native-PAGE with 7% polyacrylamide, according to manufacturer's instructions. Fractions (0.25 ml/fraction) were assayed at pH 7.5 with pNPG as substrate for the activity. The active fractions were pooled, concentrated by Vivaspin Concentrator (Vivascience LTD, Lincoln, England), and run in a 8% SDS-PAGE. Proteins in the SDS-PAGE were identified using Coomassie Blue staining.
(§3) Therefore, the active fractions from the Mono-Q column were used for the characterization of Form I. In addition, the Form I enzyme was further purified, as described in the following section.

[4] = test system: melon (Cucumis melo) fruit acid form alpha-galactosidase; test: Substrate kinetics (Lineweaver-Burk) of acid alpha-galactosidase; assay type: biochemical, muskmelon (Cucumis melo L. cv C-8)
Protocol: (§4) For routine analysis and monitoring the activity in the purification steps, alpha-galactosidase was assayed as described by Smart and Pharr (“Characterization of alpha-galactosidase from cucumber leaves”, Plant Physiology, 66:731-734, 1980), using p-nitrophenyl alpha-galactoside (pNPG) as substrate. […] The reaction was terminated after 10 min by adding 1 ml of 5% (w/v) Na2CO3 and activity expressed as nmol nitrophenol per min as measured at 410 nm. […] The assay was started by adding 50 μl enzyme preparation at 35 C and terminated after 10 to 20 min by 2 min boiling. […] For the partial purification of the acid form of alpha-galactosidase the fractions active at pH 5.5 were pooled and concentrated by reverse dialysis against solid sucrose. […] The active fractions were then desalted by dialysis against buffer A for 12 hours with two changes of the buffer. This enzyme fraction was used for the characterization of the acidic form of alpha-galactosidase. […] The substrate specificity of the alpha-galactosidases was tested with pNPG, stachyose, raffinose, melibiose or guar gum (Sigma).

[5] = test system: Cucurbita pepo leaf alkaline alpha-galactosidase ("LIV" enzyme); details: Gaudreault and Webb; alkaline form; cited from earlier work
[6] = target: T1, melon (Cucumis melo) fruit alkaline alpha-galactosidase Form II; test: Substrate kinetics (Lineweaver-Burk) of alkaline alpha-galactosidase Form II; assay type: biochemical, muskmelon (Cucumis melo L. cv C-8)
Protocol: as §1, §2

[7] = test system: Escherichia coli K12 alpha-galactosidase; details: Schmid and Schmitt 1976; cited from earlier work
[8] = test system: Cucurbita pepo leaf alkaline alpha-galactosidase ("LIV" enzyme); test: Substrate kinetics of Cucurbita pepo leaf alkaline alpha-galactosidase (Gaudreault and Webb); assay type: biochemical; details: calculated for prior art "LIV" enzyme of Gaudreault and Webb
[9] = target: T2, melon (Cucumis melo) fruit alkaline alpha-galactosidase Form I; test: Inhibition of alkaline alpha-galactosidase Form I by galactose, pNPG as substrate; assay type: biochemical, muskmelon (Cucumis melo L. cv C-8); parameters: native 84 kDa, denatured 79 kDa; assayed at pH 7.5
Protocol: as §1, §2, §3

[10] = test system: melon (Cucumis melo) fruit acid form alpha-galactosidase; test: Inhibition of acid alpha-galactosidase by galactose, pNPG as substrate; assay type: biochemical, muskmelon (Cucumis melo L. cv C-8)
Protocol: as §4

[11] = test system: Cucurbita pepo leaf alkaline alpha-galactosidase; details: 6.4 mM galactose; 7.5 mM pNPG, pH 7.5; cited from earlier work
[12] = target: T1, melon (Cucumis melo) fruit alkaline alpha-galactosidase Form II; test: Inhibition of alkaline alpha-galactosidase Form II by galactose, pNPG as substrate; assay type: biochemical, muskmelon (Cucumis melo L. cv C-8)
Protocol: as §1
as §2, with “Active fractions were separated electrophoretically using a Mini Prep Cell (Bio-Rad Laboratories, Hercules, Calif.) for discontinuous native-PAGE with 7% polyacrylamide, according to manufacturer's instructions. Fractions (0.25 ml/fraction) were assayed at pH 7.5 with pNPG as substrate for the activity. The active fractions were pooled, concentrated by Vivaspin Concentrator (Vivascience LTD, Lincoln, England), and run in a 8% SDS-PAGE. Proteins in the SDS-PAGE were identified using Coomassie Blue staining.” left out

SMILES: OC[C@H]1O[C@H](OC[C@H]2O[C@H](O[C@]3(CO)O[C@H](CO)[C@@H](O)[C@@H]3O)[C@H](O)[C@@H](O)[C@@H]2O)[C@H](O)[C@@H](O)[C@H]1O [Raffinose, O-alpha-D-galactopyranosyl-(1-6)-O-alpha-D-glucopyranosyl-(1-2)-beta-D-fructofuranoside]
- Km [1]: 17 mM
- inhibition at 80000 µM [2]: 35%
- Vmax/Km ratio [3]: 0.37
- Km ([3]; Lineweaver-Burk): < 5 mM
- Vmax ([3]; Lineweaver-Burk): 0.56 μmol mg^−1 protein min^−1
- Vmax/Km ratio [4]: 0.17
- Km ([4]; Lineweaver-Burk): 4.2 mM
- Vmax ([4]; Lineweaver-Burk): 0.71 μmol mg^−1 protein min^−1
- Km [5]: 36.4 mM
- Vmax/Km ratio [6]: 0.01
- Vmax ([6]; Lineweaver-Burk): 0.28 μmol mg^−1 protein min^−1
- Km [7]: 60 mM
- Vmax/Km ratio [8]: 0.0039

SMILES: OC[C@H]1O[C@H](O)[C@H](O)[C@@H](O)[C@H]1O [galactose, alpha-D-galactose]
- inhibition at 8000 µM ([9]; 8 mM galactose, 10 mM pNPG, alkaline Form I): 8%
- inhibition type (galactose) ([9]; alkaline Form I, Lineweaver-Burk): competitive
- Ki ([9]; alkaline Form I, competitive, Lineweaver-Burk): 13000 µM
- inhibition of catalytic activity by galactose (in words) ([9]; alkaline alpha galactosidase of the invention, FIG. 4D-F): no inhibition of catalytic activity
- reduction in activity by galactose ([10]; 8 mM galactose, 10 mM pNPG): 65%
- inhibition type (galactose) ([10]; Lineweaver-Burk): competitive
- Ki ([10]; competitive, Lineweaver-Burk): 60 µM
- reduction of reaction velocity by galactose [11]: 50%
- inhibition at 8000 µM ([12]; 8 mM galactose, 10 mM pNPG, read-out: reduction in activity by galactose): 70%
- inhibition type (galactose) ([12]; Lineweaver-Burk): competitive
- Ki ([12]; competitive, Lineweaver-Burk): 1300 µM
